Assay results from ChEMBL document CHEMBL6127128, “Discovery of the First-in-Class Dual-Target ROCK/HDAC Inhibitor with Potent Antitumor Efficacy in Vivo That Trigger Antitumor Immunity” (J Med Chem, 2024).
The source made the active and inactive calls. The calls are words filed in the database; no cut-off is given here.

What was measured:
[1] = tested on: MDA-MB-231; experiment: Cytotoxicity against human MDA-MB-231 cells assessed as reduction in cell viability incubated for 72 hrs by SRB assay; format: functional, cell-based; settings: MDA-MB-231, 72 h
[2] = target: Rho-associated protein kinase 1 (Homo sapiens, UniProt Q13464); experiment: Inhibition of N-terminal GST-tagged human recombinant ROCK1 (17 to 535 residues) expressed in baculovirus-infected Sf9 cells by HTRF KinEASE assay
[3] = target: Rho-associated protein kinase 2 (Homo sapiens, UniProt O75116); experiment: Inhibition of N-terminal GST-tagged human recombinant wild type ROCK2 (1 to 553 residues) expressed in baculovirus-infected Sf21 cells by HTRF KinEASE assay
[4] = tested on: 4T1; experiment: Antitumor immunity against mouse 4T1 cells implanted in Balb/c mouse assessed as increase in CD8+ T cells in tumor tissue at 50 mg/kg, po administered daily for 15 days by flow cytometry; format: functional, organism-based; settings: time 15.0 day
[5] = tested on: 4T1; experiment: Antitumor immunity against mouse 4T1 cells implanted in Balb/c mouse assessed as increase in CD4+ T cells in tumor tissue at 50 mg/kg, po administered daily for 15 days by flow cytometry; format: functional, organism-based; settings: time 15.0 day
[6] = tested on: 4T1; experiment: Antitumor immunity against mouse 4T1 cells implanted in Balb/c mouse assessed as increase in CD3+ T cells in tumor tissue at 50 mg/kg, po administered daily for 15 days by flow cytometry; format: functional, organism-based; settings: time 15.0 day
[7] = tested on: 4T1; experiment: Cytotoxicity against mouse 4T1 cells assessed as reduction in cell viability; format: functional, cell-based

Rho-associated protein kinase 2, sequence (O75116 whole entry, the tested form may be a part): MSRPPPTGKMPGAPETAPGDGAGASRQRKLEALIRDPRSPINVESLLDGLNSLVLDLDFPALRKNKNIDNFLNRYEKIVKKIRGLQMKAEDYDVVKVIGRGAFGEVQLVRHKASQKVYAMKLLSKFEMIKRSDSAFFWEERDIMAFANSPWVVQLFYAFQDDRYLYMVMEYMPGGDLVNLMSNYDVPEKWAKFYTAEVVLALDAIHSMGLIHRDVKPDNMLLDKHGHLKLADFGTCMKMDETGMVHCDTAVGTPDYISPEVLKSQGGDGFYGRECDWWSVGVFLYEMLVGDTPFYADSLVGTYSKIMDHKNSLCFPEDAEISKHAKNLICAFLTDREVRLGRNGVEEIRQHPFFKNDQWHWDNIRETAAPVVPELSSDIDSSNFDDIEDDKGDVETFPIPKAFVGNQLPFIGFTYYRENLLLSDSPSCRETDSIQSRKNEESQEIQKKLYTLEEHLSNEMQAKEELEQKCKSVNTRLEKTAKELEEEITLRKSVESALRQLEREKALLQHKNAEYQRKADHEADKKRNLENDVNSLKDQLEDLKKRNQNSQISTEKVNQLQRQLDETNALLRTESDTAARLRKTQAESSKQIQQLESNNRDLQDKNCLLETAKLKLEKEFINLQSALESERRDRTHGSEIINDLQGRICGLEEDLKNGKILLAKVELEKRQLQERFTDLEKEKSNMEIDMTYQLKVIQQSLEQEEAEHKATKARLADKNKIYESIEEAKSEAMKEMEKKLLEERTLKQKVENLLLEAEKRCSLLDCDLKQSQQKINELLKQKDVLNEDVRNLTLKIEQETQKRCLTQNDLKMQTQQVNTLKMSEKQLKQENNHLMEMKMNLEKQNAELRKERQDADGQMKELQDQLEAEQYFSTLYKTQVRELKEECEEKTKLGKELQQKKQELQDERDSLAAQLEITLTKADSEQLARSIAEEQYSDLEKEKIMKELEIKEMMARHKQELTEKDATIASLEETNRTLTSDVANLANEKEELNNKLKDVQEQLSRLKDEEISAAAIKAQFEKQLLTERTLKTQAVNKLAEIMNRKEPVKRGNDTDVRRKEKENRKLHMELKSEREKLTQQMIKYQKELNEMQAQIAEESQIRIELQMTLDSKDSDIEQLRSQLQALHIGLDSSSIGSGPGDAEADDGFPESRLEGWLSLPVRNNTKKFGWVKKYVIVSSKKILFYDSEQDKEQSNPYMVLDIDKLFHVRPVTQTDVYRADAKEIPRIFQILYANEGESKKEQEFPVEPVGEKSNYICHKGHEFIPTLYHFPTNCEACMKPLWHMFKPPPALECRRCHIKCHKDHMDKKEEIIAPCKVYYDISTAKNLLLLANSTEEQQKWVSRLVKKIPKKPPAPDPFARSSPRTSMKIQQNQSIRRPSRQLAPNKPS

**Q.** For `O=C(CCCCCCCNC(=O)c1cc2cccc(-c3cn[nH]c3)c2s1)NO`, which IC50 [1] is on record?
**A.** The IC50 was over 10000 nM.

**Q.** How did the “inhibition (active/inactive call)” value [2] turn out when `COc1cccc(CNC(=O)c2cc3ccc(-c4cn[nH]c4)cc3s2)c1` was run?
**A.** The value was “Active”.

**Q.** And the IC50 [3]?
**A.** The IC50 was 7.94 nM.

**Q.** How did the IC50 [1] turn out when `O=C(CCCCCNC(=O)c1cc2c(-c3cn[nH]c3)cccc2s1)NO` was run?
**A.** Its IC50 is 3210 nM.

**Q.** What does the source list for `COc1cccc(CNC(=O)c2cc3ccc(-c4ccncc4)cc3s2)c1`?
**A.** inhibition (active/inactive call) [2]: Active; IC50 [3]: 296 nM

**Q.** How did the IC50 [3] turn out when `COc1cccc(CNC(=O)c2cc3cc(-c4cccc5cnccc45)ccc3s2)c1` was run?
**A.** Its IC50 is over 1000 nM.

**Q.** Which IC50 [1] does the source give for `O=C(CCCCCNC(=O)c1cc2c(-c3ccncc3)cccc2s1)NO` here?
**A.** The IC50 was over 10000 nM.

**Q.** Which IC50 [1] does the source give for `O=C(CCCCCCNC(=O)c1cc2cccc(-c3ccncc3)c2s1)NO` here?
**A.** Its IC50 is 1540 nM.

**Q.** Which IC50 [1] does the source give for `O=C(CCCCCCNC(=O)c1cc2cccc(-c3cn[nH]c3)c2s1)NO` here?
**A.** Its IC50 is 9050 nM.

**Q.** Which IC50 [3] does the source give for `COc1cccc(CNC(=O)c2cc3cccc(-c4ccc5[nH]ncc5c4)c3s2)c1` here?
**A.** Its IC50 is over 1000 nM.

**Q.** `COc1cccc(CNC(=O)c2cc3c(-c4cccc5cnccc45)cccc3s2)c1` was tested. Which IC50 [3] did it give?
**A.** The IC50 was over 1000 nM.

**Q.** What does the source list for `O=C(CCCCCCC(=O)Nc1ccccc1)NO` [VORINOSTAT]?
**A.** Activity [4]: Active; IC50 [1]: 660 nM; Activity [5]: Active; Activity [6]: Active

**Q.** Which IC50 [1] does the source give for `O=C(CCCCCCCNC(=O)c1cc2cccc(-c3ccncc3)c2s1)NO` here?
**A.** The IC50 was over 10000 nM.

**Q.** `O=C(CCCCCCNC(=O)c1cc2ccc(-c3cn[nH]c3)cc2s1)NO` was tested. Which IC50 [1] did it give?
**A.** Its IC50 is 1260 nM.

**Q.** What does the source list for `COc1cccc(CNC(=O)c2cc3cc(-c4cn[nH]c4)ccc3s2)c1`?
**A.** inhibition (active/inactive call) [2]: Active; IC50 [3]: 6.75 nM

**Q.** Which IC50 [3] does the source give for `COc1cccc(CNC(=O)c2cc3cc(-c4ccc5[nH]ncc5c4)ccc3s2)c1` here?
**A.** The IC50 was over 1000 nM.

**Q.** For `O=C(CCCCCCCNC(=O)c1cc2cc(-c3cn[nH]c3)ccc2s1)NO`, which IC50 [1] is on record?
**A.** Its IC50 is 6420 nM.

**Q.** With `O=C(CCCCCCCNC(=O)c1cc2cc(-c3ccncc3)ccc2s1)NO` as the compound, how does the IC50 [2] read?
**A.** The IC50 was over 1000 nM.

**Q.** What about the IC50 [1] of the same compound?
**A.** Its IC50 is 420 nM.

**Q.** And the IC50 [3]?
**A.** The IC50 was over 1000 nM.

**Q.** With `COc1cccc(CNC(=O)c2cc3c(-c4cn[nH]c4)cccc3s2)c1` as the compound, how does the IC50 [3] read?
**A.** Its IC50 is over 1000 nM.

**Q.** For `COc1cccc(CNC(=O)c2cc3ccc(-c4cccc5cnccc45)cc3s2)c1`, which IC50 [3] is on record?
**A.** Its IC50 is over 1000 nM.

**Q.** How did the IC50 [3] turn out when `COc1cccc(CN(CCN(C)C)C(=O)c2nc3ccc(-c4cn[nH]c4)cc3s2)c1` was run?
**A.** The IC50 was under 1 nM.

**Q.** `COc1cccc(CNC(=O)c2cc3ccc(-c4ccc5[nH]ncc5c4)cc3s2)c1` was tested. Which IC50 [3] did it give?
**A.** The IC50 was over 1000 nM.

**Q.** `O=C(CCCCCNC(=O)c1cc2cccc(-c3cn[nH]c3)c2s1)NO` was tested. Which IC50 [1] did it give?
**A.** The IC50 was over 10000 nM.

**Q.** `O=C(CCCCCCNC(=O)c1cc2c(-c3cn[nH]c3)cccc2s1)NO` was tested. Which IC50 [1] did it give?
**A.** The IC50 was over 10000 nM.

**Q.** For `O=C(CCCCCCCNC(=O)c1cc2c(-c3cn[nH]c3)cccc2s1)NO`, which IC50 [1] is on record?
**A.** Its IC50 is over 10000 nM.

**Q.** For `O=C(CCCCCNC(=O)c1cc2cccc(-c3ccncc3)c2s1)NO`, which IC50 [1] is on record?
**A.** The IC50 was over 10000 nM.

**Q.** `CN[C@@H]1C[C@H](c2ccc3c(c2O)C(=O)c2c(C)sc(C(C)=O)c2C3=O)O[C@H](C)[C@H]1O` was tested. Which IC50 [3] did it give?
**A.** Its IC50 is 8890 nM.

**Q.** For `COc1cccc(CNC(=O)c2cc3cccc(-c4ccncc4)c3s2)c1`, which IC50 [3] is on record?
**A.** Its IC50 is over 1000 nM.

**Q.** How did the IC50 [3] turn out when `COc1cccc(CNC(=O)c2cc3c(-c4ccncc4)cccc3s2)c1` was run?
**A.** The IC50 was over 1000 nM.

**Q.** For `COc1cccc(CNC(=O)c2cc3cccc(-c4cccc5cnccc45)c3s2)c1`, which IC50 [3] is on record?
**A.** Its IC50 is over 1000 nM.

**Q.** For `O=C(CCCCCCCNC(=O)c1cc2ccc(-c3cn[nH]c3)cc2s1)NO`, which IC50 [1] is on record?
**A.** Its IC50 is 760 nM.

**Q.** Which IC50 [1] does the source give for `O=C(CCCCCNC(=O)c1cc2cc(-c3cn[nH]c3)ccc2s1)NO` here?
**A.** The IC50 was over 10000 nM.

**Q.** How did the IC50 [1] turn out when `O=C(CCCCCCCNC(=O)c1cc2c(-c3ccncc3)cccc2s1)NO` was run?
**A.** Its IC50 is over 10000 nM.

**Q.** Which IC50 [3] does the source give for `COc1cccc(CNC(=O)c2cc3c(-c4ccc5[nH]ncc5c4)cccc3s2)c1` here?
**A.** The IC50 was over 1000 nM.

**Q.** How did the IC50 [2] turn out when `O=C(CCCCCCNC(=O)c1cc2cc(-c3ccncc3)ccc2s1)NO` was run?
**A.** Its IC50 is over 1000 nM.

**Q.** What about the IC50 [1] of the same compound?
**A.** Its IC50 is 130 nM.

**Q.** And the IC50 [3]?
**A.** Its IC50 is over 1000 nM.

**Q.** What does the source list for `C[C@@H](N)[C@H]1CC[C@H](C(=O)Nc2ccncc2)CC1` [Y-27632]?
**A.** IC50 [7]: > 10000 nM; IC50 [1]: > 10000 nM

**Q.** For `O=C(CCCCCCCNC(=O)c1cc2ccc(-c3ccncc3)cc2s1)NO`, which IC50 [2] is on record?
**A.** The IC50 was over 1000 nM.

**Q.** What about the IC50 [1] of the same compound?
**A.** The IC50 was 460 nM.

**Q.** What about the IC50 [3] of the same compound?
**A.** The IC50 was over 1000 nM.

**Q.** Which IC50 [1] does the source give for `O=C(CCCCCCNC(=O)c1cc2c(-c3ccncc3)cccc2s1)NO` here?
**A.** Its IC50 is 2900 nM.

**Q.** `COc1cccc(CNC(=O)c2cc3cccc(-c4cn[nH]c4)c3s2)c1` was tested. Which “inhibition (active/inactive call)” value [2] did it give?
**A.** Its value is “Active”.

**Q.** What about the IC50 [3] of the same compound?
**A.** The IC50 was 225 nM.

**Q.** How did the IC50 [1] turn out when `O=C(CCCCCNC(=O)c1cc2cc(-c3ccncc3)ccc2s1)NO` was run?
**A.** Its IC50 is over 10000 nM.

**Q.** Which IC50 [1] does the source give for `O=C(CCCCCNC(=O)c1cc2ccc(-c3ccncc3)cc2s1)NO` here?
**A.** The IC50 was over 10000 nM.

**Q.** How did the IC50 [1] turn out when `O=C(CCCCCNC(=O)c1cc2ccc(-c3cn[nH]c3)cc2s1)NO` was run?
**A.** The IC50 was over 10000 nM.

**Q.** `O=C(CCCCCCNC(=O)c1cc2ccc(-c3ccncc3)cc2s1)NO` was tested. Which IC50 [1] did it give?
**A.** Its IC50 is 950 nM.

**Q.** `COc1cccc(CNC(=O)c2cc3cc(-c4ccncc4)ccc3s2)c1` was tested. Which IC50 [3] did it give?
**A.** Its IC50 is over 1000 nM.
